Experiments:
MSCs = conditions: 1 μg/ml, alone; cited from earlier work
human BMSC = experiment: In vitro differentiation of human BMSC; immunocytochemistry and Western blot; assay type: cell-based; conditions: replated in medium containing the mitogen
Description: To briefly summarize, BMSC were separated from whole bone marrow of the mouse, calf and humans.
BMSC were isolated from residual bone marrow material (bone chips with adherent stromal cells, fatty tissue and debris) which was retained on the nylon mesh filters routinely used in filtering freshly procured human marrow to be used for bone marrow transplantation. The filtrate contains the bulk of the bone marrow hematopoietic elements that is then processed for human bone marrow replacement. We use the filters that were usually discarded. The filters were back washed five times with PBS. The PBS solution was centrifuged to deposit the heavier bone chips. The supernatant was resuspended in culture medium and plated in tissue culture flasks (as in Example 1). BMSC were separated by their adherence to plastic culture flasks, whereas the smaller hematopoietic stem cells remained suspended in the media and were removed when the culture media was replaced with fresh media. […]
After 7 days, expressions of neuronal markers (Nestin, Neuron Specific Nuclear protein or NeuN and GFAP) and a bone marrow stromal cell marker (fibronectin) were analyzed by Western blot analysis and immunocytochemistry (FIG. 6). […]

Compound	differentiation of MSCs into myoblasts and myotubes (MSCs)	proliferation and differentiation of human bone marrow cells (human BMSC)
C[C@@H]1[C@H](O)[C@@H](C)/C=C/C=C/C=C/C=C/C=C/C=C/C=C/[C@H](O[C@@H]2O[C@H](C)[C@@H](O)[C@H](N)[C@@H]2O)C[C@@H]2O[C@](O)(C[C@@H](O)C[C@@H](O)[C@H](O)CC[C@@H](O)C[C@@H](O)CC(=O)O[C@H]1C)C[C@H](O)[C@H]2C(=O)O [amphotericin B]	differentiate into myoblasts and myotubes	
EGF: epidermal growth factor, mitogen used at 10 ng/ml (NSDSECPLSHDGYCLHDGVCMYIEALDKYACNCVVGYIGERCQYRDLKWWELR; Epidermal growth factor; UniProt P01133 971-1023, looked up)		proliferation of cells, without significant induction of differentiation

Source: US6528245B2, “Bone marrow cells as a source of neurons for brain and spinal cord repair” (University of South Florida, priority 1998, dated 2003)
